Assays:
[1] = Inhibition of Penicillium decumbens alpha-L-rhamnosidase using p-nitrophenyl-glycoside as substrate by spectrophotometric method
[2] = test system: Prunus dulcis; assay: Inhibition of almond beta-glucosidase at 100 uM using p-nitrophenyl-glycoside as substrate by spectrophotometric method
[3] = organism: Bos taurus; assay: Inhibition of bovine liver beta-glucosidase at 100 uM using p-nitrophenyl-glycoside as substrate by spectrophotometric method
[4] = test system: Oryza sativa; assay: Inhibition of rice alpha-glucosidase at 100 uM using p-nitrophenyl-glycoside as substrate by spectrophotometric method
[5] = organism: Rattus norvegicus; assay: Inhibition of rat intestinal maltase assessed as D-glucose level at 100 uM using maltose as substrate measured after 10 to 30 mins
[6] = test system: Aspergillus niger; assay: Inhibition of Aspergillus niger amyloglucosidase assessed as D-glucose level at 100 uM using maltose as substrate measured after 10 to 30 mins
[7] = molecular target: T1, Tissue alpha-L-fucosidase (Bos taurus) (UniProt Q2KIM0); assay: Inhibition of bovine kidney alpha-L-fucosidase at 100 uM using p-nitrophenyl-glycoside as substrate by spectrophotometric method
T1 sequence (whole entry): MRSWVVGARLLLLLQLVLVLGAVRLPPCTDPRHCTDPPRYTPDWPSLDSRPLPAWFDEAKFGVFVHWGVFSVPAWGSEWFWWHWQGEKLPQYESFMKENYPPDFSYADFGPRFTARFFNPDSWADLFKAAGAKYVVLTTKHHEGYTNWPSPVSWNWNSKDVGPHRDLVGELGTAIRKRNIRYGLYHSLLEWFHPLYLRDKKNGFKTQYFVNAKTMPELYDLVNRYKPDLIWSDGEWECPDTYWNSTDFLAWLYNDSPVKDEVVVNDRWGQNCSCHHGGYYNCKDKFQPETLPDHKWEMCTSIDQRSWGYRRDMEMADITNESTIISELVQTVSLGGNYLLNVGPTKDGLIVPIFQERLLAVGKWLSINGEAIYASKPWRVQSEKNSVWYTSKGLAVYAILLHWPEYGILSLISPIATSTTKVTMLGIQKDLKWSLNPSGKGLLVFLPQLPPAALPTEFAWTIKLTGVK

[8] = molecular target: T2, Uncharacterized protein (Sus scrofa) (UniProt I3LIR5); assay: Inhibition of porcine kidney trehalase assessed as D-glucose level at 100 uM using maltose as substrate measured after 10 to 30 mins
T2 sequence (whole entry): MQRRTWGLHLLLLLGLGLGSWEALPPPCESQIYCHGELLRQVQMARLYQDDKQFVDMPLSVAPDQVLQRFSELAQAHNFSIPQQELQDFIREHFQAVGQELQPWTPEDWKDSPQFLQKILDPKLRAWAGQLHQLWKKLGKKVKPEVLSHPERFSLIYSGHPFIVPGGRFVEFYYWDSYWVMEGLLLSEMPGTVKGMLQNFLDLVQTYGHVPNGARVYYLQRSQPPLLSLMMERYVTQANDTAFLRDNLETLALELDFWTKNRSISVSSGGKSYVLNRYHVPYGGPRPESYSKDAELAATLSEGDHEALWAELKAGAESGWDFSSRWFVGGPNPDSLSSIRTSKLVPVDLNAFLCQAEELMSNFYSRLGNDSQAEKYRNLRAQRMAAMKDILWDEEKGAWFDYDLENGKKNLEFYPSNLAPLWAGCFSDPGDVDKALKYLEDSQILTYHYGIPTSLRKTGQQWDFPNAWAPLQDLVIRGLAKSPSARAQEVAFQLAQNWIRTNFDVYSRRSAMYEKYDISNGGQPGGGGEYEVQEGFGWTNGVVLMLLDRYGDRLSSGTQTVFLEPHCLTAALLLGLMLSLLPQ

[9] = organism: Homo sapiens; assay: Inhibition of human lysosomal beta-glucosidase at 100 uM using 4-methylumbelliferyl-beta-D-glucopyranoside as substrate preincubated for 45 mins followed by substrate addition measured after 30 mins by fluorescence spectrophotometric method
[10] = test system: Escherichia coli; assay: Inhibition of Escherichia coli beta-glucuronidase at 100 uM using p-nitrophenyl-glycoside as substrate by spectrophotometric method
[11] = molecular target: T3, Beta-galactosidase (Bos taurus) (UniProt Q58D55); assay: Inhibition of bovine liver beta-galactosidase at 100 uM using p-nitrophenyl-glycoside as substrate by spectrophotometric method
T3 sequence (whole entry): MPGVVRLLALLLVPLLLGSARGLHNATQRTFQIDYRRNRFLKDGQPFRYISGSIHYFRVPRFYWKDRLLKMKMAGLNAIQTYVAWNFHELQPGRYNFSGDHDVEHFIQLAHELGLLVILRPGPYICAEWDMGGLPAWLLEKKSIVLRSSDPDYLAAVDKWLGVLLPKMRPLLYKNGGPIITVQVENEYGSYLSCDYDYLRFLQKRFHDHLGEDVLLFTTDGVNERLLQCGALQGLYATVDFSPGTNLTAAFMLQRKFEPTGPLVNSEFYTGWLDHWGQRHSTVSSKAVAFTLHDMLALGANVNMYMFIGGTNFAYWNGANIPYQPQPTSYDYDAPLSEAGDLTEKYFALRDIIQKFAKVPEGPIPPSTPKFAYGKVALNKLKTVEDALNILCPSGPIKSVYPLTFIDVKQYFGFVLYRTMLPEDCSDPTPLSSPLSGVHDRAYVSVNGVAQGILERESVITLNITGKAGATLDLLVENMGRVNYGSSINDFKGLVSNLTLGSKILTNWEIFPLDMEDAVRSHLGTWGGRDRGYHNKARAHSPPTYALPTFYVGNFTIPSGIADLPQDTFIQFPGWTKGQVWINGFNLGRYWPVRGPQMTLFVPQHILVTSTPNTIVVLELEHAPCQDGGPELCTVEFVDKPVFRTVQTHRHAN

[12] = test system: Penicillium decumbens; assay: Inhibition of Penicillium decumbens alpha-L-rhamnosidase at 100 uM using p-nitrophenyl-glycoside as substrate by spectrophotometric method
[13] = Inhibition of bovine liver beta-glucosidase using p-nitrophenyl-glycoside as substrate by spectrophotometric method; set-up: species or system Bos taurus
[14] = Inhibition of human lysosomal beta-glucosidase using 4-methylumbelliferyl-beta-D-glucopyranoside as substrate preincubated for 45 mins followed by substrate addition measured after 30 mins by fluorescence spectrophotometric method
[15] = molecular target: T4, Beta-galactosidase (Bos taurus, UniProt Q58D55); assay: Inhibition of bovine liver beta-galactosidase using p-nitrophenyl-glycoside as substrate by spectrophotometric method
T4 sequence (Q58D55 whole entry): T3 sequence (whole entry)

[16] = test system: Prunus dulcis; assay: Inhibition of almond beta-glucosidase at 1000 uM using p-nitrophenyl-glycoside as substrate by spectrophotometric method
[17] = organism: Bos taurus; assay: Inhibition of bovine liver beta-glucosidase at 1000 uM using p-nitrophenyl-glycoside as substrate by spectrophotometric method
[18] = organism: Homo sapiens; assay: Inhibition of human lysosomal beta-glucosidase at 1000 uM using 4-methylumbelliferyl-beta-D-glucopyranoside as substrate preincubated for 45 mins followed by substrate addition measured after 30 mins by fluorescence spectrophotometric method
[19] = test system: Aspergillus niger; assay: Inhibition of Aspergillus niger amyloglucosidase assessed as D-glucose level at 1000 uM using maltose as substrate measured after 10 to 30 mins
[20] = organism: Rattus norvegicus; assay: Inhibition of rat intestinal maltase assessed as D-glucose level at 1000 uM using maltose as substrate measured after 10 to 30 mins
[21] = molecular target: T1, Tissue alpha-L-fucosidase (Bos taurus); assay: Inhibition of bovine kidney alpha-L-fucosidase at 1000 uM using p-nitrophenyl-glycoside as substrate by spectrophotometric method
[22] = molecular target: T2, Uncharacterized protein (Sus scrofa); assay: Inhibition of porcine kidney trehalase assessed as D-glucose level at 1000 uM using maltose as substrate measured after 10 to 30 mins
[23] = test system: Escherichia coli; assay: Inhibition of Escherichia coli beta-glucuronidase at 1000 uM using p-nitrophenyl-glycoside as substrate by spectrophotometric method
[24] = Inhibition of rice alpha-glucosidase using p-nitrophenyl-glycoside as substrate by spectrophotometric method; set-up: species or system Oryza sativa

SMILES | IC50 [1] | inhibition [2] | inhibition [3] | inhibition [4] | inhibition [5] | inhibition [6] | inhibition [7] | inhibition [8] | inhibition [9] | inhibition [10] | inhibition [11] | inhibition [12] | IC50 [13] | IC50 [14] | IC50 [15] | also measured
OC[C@H]1[C@H](O)[C@@H](O)[C@@H]2CS/C(=N/CCCc3ccccc3)N12 | 6.8 µM | < 50% | < 50% | < 50% | < 50% | < 50% | < 50% | < 50% | < 50% | < 50% | < 50% |  |  |  |  | 
CCCCCCCCCCCCNC(=S)N1[C@H](CO)[C@@H](O)[C@H](O)[C@H]1CO |  | < 50% |  | < 50% | < 50% | < 50% | < 50% | < 50% |  | < 50% |  | < 50% | 23 µM | 0.16 µM | 24 µM | 
CCCCCCCCCCNC(=S)N1[C@H](CO)[C@@H](O)[C@H](O)[C@H]1CO |  | < 50% | < 50% | < 50% | < 50% | < 50% | < 50% | < 50% |  | < 50% |  | < 50% |  | 0.74 µM | 100 µM | 
CCCCCCCCCCNC(=S)N1[C@@H](CO)[C@H](O)[C@@H](O)[C@@H]1CO |  | < 50% |  | < 50% | < 50% | < 50% | < 50% | < 50% |  | < 50% |  | < 50% | 16 µM | 65 µM | 61 µM | 
OC[C@H]1[C@H](O)[C@@H](O)[C@@H]2CS/C(=N/CCCCCc3ccccc3)N12 | 1.8 µM | < 50% | < 50% | < 50% | < 50% | < 50% | < 50% | < 50% | < 50% | < 50% | < 50% |  |  |  |  | 
CCCCCCCCCCCCNC(=S)N1[C@@H](CO)[C@H](O)[C@@H](O)[C@@H]1CO |  | < 50% |  | < 50% | < 50% | < 50% | < 50% | < 50% |  | < 50% |  | < 50% | 36 µM | 73 µM | 30 µM | 
CCCC/N=C1/SC[C@H]2[C@H](O)[C@@H](O)[C@H](CO)N12 | 37 µM |  |  |  |  |  |  |  |  |  |  |  |  |  | 719 µM | inhibition [16]: < 50%; inhibition [17]: < 50%; inhibition [18]: < 50%; inhibition [19]: < 50%; inhibition [20]: < 50%; inhibition [21]: < 50%; inhibition [22]: < 50%; inhibition [23]: < 50%; IC50 [24]: 339 µM
OC[C@H]1[C@H](O)[C@@H](O)[C@@H]2CS/C(=N/Cc3ccccc3)N12 | 2.2 µM | < 50% | < 50% | < 50% | < 50% | < 50% | < 50% | < 50% | < 50% | < 50% | < 50% |  |  |  |  | 
OC[C@H]1[C@H](O)[C@@H](O)[C@@H]2CS/C(=N/CCCCCCCc3ccccc3)N12 | 1 µM | < 50% | < 50% | < 50% | < 50% | < 50% | < 50% | < 50% | < 50% | < 50% | < 50% |  |  |  |  | 
